According to PubChem BioAssay (NCI):
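96-well plates; 48 h exposure; 5 concentrations. Endpoints by linear interpolation between flanking doses. Not reached: highest tested concentration assigned. The concentration for full growth arrest is given as TGI.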

Key:
Test in all cases: NCI tumour cell line growth inhibition, 48 h
[1] = system: SN12C renal
[2] = system: DMS 114 small cell lung
[3] = system: SW-620 colon
[4] = system: CCRF-CEM leukemia
[5] = system: NCI-H522 lung
[6] = system: TK-10 renal
[7] = system: NCI-H23 lung
[8] = system: RXF 393 renal
[9] = system: MOLT-4 leukemia
[10] = system: MALME-3M melanoma
[11] = system: SF-539 CNS
[12] = system: OVCAR-3 ovarian
[13] = system: UACC-62 melanoma
[14] = system: SK-OV-3 ovarian
[15] = system: 786-0 renal
[16] = system: EKVX NSCLC
[17] = system: LOX IMVI melanoma
[18] = system: SK-MEL-2 melanoma
[19] = system: HOP-92 NSCLC
[20] = system: HCC-2998 colon
[21] = system: SK-MEL-5 melanoma
[22] = system: M19-MEL melanoma
[23] = system: RPMI-8226 leukemia
[24] = system: U251 CNS
[25] = system: OVCAR-4 ovarian
[26] = system: UACC-257 melanoma
[27] = system: M14 melanoma
[28] = system: NCI-H226 lung
[29] = system: SNB-78 CNS
[30] = system: IGROV1 ovarian
[31] = system: OVCAR-5 ovarian
[32] = system: HT29 colon
[33] = system: SNB-75 CNS
[34] = system: UO-31 renal
[35] = system: K-562 leukemia
[36] = system: KM12 colon
[37] = system: NCI-H460 lung
[38] = system: ACHN renal
[39] = system: OVCAR-8 ovarian
[40] = system: SK-MEL-28 melanoma
[41] = system: A498 renal
[42] = system: HL-60(TB) leukemia
[43] = system: COLO 205 colon
[44] = system: A549 NSCLC
[45] = system: KM20L2 colon
[46] = system: HOP-62 NSCLC
[47] = system: SF-268 CNS
[48] = system: SNB-19 CNS
[49] = system: DLD-1 colon
[50] = system: CAKI-1 renal
[51] = system: SF-295 CNS
[52] = system: DMS 273 small cell lung
[53] = system: HCT-15 colon
[54] = system: MDA-MB-435
[55] = system: MDA-N
[56] = system: BT-549 breast
[57] = system: NCI/ADR-RES ovarian
[58] = system: MCF7 breast
[59] = system: HS 578T breast
[60] = system: MDA-MB-231 breast
[61] = system: SR leukemia
[62] = system: DU-145 prostate
[63] = system: PC-3 prostate
[64] = system: T-47D breast
[65] = system: HCT-116 colon

Measured: TGI

Cc1ccc(S(=O)(=O)N(/N=C/C=C/c2ccccc2)c2nnc(-c3ccccc3)c(-c3ccccc3)n2)cc1
94.4 µM: [44]
88.6 µM: [12]
64.3 µM: [51]
55.6 µM: [28]
60.7 µM: [8]
66.9 µM: [52]
51.3 µM: [17]
74.3 µM: [15]
50.4 µM: [42]
98.7 µM: [26]
33 µM: [11]
96.9 µM: [47]
47.4 µM: [19]
40.3 µM: [23]
78.3 µM: [22]
66.8 µM: [7]
48.9 µM: [46]
49.4 µM: [27]
75.1 µM: [14]
23.4 µM: [34]
54.1 µM: [2]
40.5 µM: [45]
80 µM: [35]
47.8 µM: [18]
23 µM: [32]
36.1 µM: [43]
69 µM: [33]
51.9 µM: [5]
57 µM: [50]
76.5 µM: [9]
76.9 µM: [6]
29.5 µM: [20]
35.1 µM: [21]
78.4 µM: [40]
not listed: [54] | [55] | [56] | [57] | [58] | [59] | [60] | [61] | [62] | [63] | [64] | [65]
> 100 µM: all other assays above

N#C/C(=C\Nc1ccccn1)C(=O)C1CC1
not listed: [2] | [22] | [29] | [45] | [49] | [52]
> 100 µM: all other assays above
